SMILES strings stand for the structures.

T1 sequence (Q00975 whole entry): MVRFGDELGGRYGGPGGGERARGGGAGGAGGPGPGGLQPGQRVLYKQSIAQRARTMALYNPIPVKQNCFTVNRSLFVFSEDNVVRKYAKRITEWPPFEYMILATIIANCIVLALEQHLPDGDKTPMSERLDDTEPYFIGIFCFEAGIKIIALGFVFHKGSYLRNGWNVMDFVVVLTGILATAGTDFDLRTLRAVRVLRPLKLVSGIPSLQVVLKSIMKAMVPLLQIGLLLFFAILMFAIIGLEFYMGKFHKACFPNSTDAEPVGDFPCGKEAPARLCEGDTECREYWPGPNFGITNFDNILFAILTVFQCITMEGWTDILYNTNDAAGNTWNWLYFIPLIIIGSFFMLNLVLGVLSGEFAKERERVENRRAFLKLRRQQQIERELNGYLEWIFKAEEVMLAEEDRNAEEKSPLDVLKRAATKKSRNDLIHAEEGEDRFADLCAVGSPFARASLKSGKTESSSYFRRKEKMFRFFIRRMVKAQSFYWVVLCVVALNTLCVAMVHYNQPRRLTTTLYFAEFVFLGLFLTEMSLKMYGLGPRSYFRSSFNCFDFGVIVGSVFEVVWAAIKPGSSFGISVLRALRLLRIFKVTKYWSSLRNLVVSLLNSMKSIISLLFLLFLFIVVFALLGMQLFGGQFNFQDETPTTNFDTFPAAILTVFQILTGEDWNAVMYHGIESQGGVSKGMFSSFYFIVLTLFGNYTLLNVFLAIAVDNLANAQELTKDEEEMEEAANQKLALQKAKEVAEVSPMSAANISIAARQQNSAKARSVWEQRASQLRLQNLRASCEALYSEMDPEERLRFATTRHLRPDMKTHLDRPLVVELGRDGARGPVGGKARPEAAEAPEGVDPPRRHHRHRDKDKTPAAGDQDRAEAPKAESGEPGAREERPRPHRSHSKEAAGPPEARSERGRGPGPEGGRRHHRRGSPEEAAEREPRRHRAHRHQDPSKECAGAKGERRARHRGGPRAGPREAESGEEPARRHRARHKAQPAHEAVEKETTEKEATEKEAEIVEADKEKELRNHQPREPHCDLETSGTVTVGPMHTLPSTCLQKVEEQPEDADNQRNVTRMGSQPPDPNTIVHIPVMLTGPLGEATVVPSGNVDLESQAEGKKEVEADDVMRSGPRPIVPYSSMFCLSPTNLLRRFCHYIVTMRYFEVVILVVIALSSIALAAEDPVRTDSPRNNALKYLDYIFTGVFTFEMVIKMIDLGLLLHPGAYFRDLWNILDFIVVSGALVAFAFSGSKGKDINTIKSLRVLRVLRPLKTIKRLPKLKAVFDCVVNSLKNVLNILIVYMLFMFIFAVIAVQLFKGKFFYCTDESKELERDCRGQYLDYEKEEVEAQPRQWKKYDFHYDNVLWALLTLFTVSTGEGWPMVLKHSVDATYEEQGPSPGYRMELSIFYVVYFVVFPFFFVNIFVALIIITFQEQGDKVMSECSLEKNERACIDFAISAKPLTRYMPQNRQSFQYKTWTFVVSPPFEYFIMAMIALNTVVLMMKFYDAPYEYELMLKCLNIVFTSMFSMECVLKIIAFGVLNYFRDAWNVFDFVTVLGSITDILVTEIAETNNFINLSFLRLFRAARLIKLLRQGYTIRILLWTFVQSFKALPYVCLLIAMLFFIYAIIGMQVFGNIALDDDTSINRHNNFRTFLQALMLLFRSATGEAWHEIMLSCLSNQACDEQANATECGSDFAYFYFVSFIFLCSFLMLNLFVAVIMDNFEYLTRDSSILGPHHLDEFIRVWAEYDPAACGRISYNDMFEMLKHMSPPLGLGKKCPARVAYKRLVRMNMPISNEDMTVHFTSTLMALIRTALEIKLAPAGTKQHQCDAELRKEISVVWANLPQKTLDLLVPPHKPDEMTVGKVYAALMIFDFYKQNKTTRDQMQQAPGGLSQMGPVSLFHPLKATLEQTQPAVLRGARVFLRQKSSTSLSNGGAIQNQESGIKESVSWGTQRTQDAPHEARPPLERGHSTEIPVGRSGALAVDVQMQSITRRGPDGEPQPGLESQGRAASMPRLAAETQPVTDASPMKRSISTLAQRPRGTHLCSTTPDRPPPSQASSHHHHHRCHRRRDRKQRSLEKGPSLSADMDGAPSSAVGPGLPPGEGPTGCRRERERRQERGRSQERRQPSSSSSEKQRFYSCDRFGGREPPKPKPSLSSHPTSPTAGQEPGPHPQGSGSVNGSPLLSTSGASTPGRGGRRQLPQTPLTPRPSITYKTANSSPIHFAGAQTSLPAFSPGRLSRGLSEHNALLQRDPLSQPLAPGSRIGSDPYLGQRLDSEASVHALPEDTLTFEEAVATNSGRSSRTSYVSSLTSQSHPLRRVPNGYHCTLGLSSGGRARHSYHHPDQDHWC

This experiment has as its target T1, Human CaV2.2 channels (Homo sapiens, UniProt Q00975).
T1 construct: expressed in transfected cells; also stably expressing Kir2.3)
The experiment is described as follows: Fluorescent assay for CaV2.2 channels using potassium depolarization to induce channel opening (FLIPR, Fluo 4). It is filed as cell-based. The settings on record: 3 μM test compound; 30 mM KCl alternative assay buffer (inactivated channel state); HEK293 cells; read-out: %-Inhib (CaV2.2) @3 μM @30 mM KCl. An excerpt:
In the process, the Ca^2+ influx is quantified in the FLIPR assay with the aid of a Ca^2+-sensitive dye (type Fluo-4, Molecular Probes Europe BV, Leiden, the Netherlands) in a fluorescent imaging plate reader (FLIPR 3, Molecular Devices, Sunnyvale, USA), as described hereinafter.
2. Assay Descriptions and Biological Data: 2.1 Fluorescent Assay for CaV2.2 Channels Using Potassium Depolarization to Induce Channel Opening
Human CaV2.2 channels were stably expressed in HEK293 cells together with alpha2-delta and beta subunits of voltage gated calcium channels. In addition, an inwardly rectifying potassium channel (Kir2.3) was stably expressed in these cells to augment control of the cell membrane potential by the concentration of extracellular potassium ions. Raise of the extracellular potassium concentration leads to depolarization of the membrane potential and thus regulates the voltage dependent state of CaV2.2 channels. For preparation, cells were seeded in black poly-D-lysine coated 96-well plates (Becton Dickinson, Biocoat 4640) in 100 μL medium [500 mL DMEM/F-12 plus Glutamax (Invitrogen 31331-093) plus 5.5 mL MEM NEAA 100× (Invitrogen 11140-035) plus 50 mL FBS decomplemented (Invitrogen 10270-106) plus 200 μg/mL Geneticin (Invitrogen 10131-027) plus 50 μg/mL Hygromycin B (Invitrogen 10687-010) plus 2 μg/mL Blasticidin (anti-bl5b Invivo-Gen) plus 0.2 μg/mL Puromycin (A 11138-03)] at a cell density of 30.000 cells per well. Plates were incubated at 37° C. (5% CO2) for 20 to 23 h. On the day of experiment medium was discarded and cells were loaded with Fluo 4 by addition of 100 μL of basic assay buffer (10 mM HEPES, 1 mM KCl, 149 mM NaCl, 0.8 mM CaC2, 1.7 mM MgCl2, 10 mM Glucose, 0.1% BSA. pH 7.4) containing 2 μM Fluo 4 (Molecular Probes; F-14201), 0.01% pluronic acid (Molecular Probes; P-6866) and 2.5 mM probenecid (Molecular Probes; P36400). Cells were incubated in the dark at 25° C. for 60 min. Then dye containing buffer was discarded and 100 μL basic (1 mM KCl) or alternative (30 mM KCl) assay buffer was added. The alternative assay buffer contained altered concentrations of KCl (30 mM) and NaCl (120 mM) and was used in order to promote the inactivated channel state. After that 25 μL of basic or alternative assay buffer with or without test compound were added and cells were incubated again in the dark at 25° C. for 15 min. Fluorescence intensity was measured on a FLIPR 3 instrument (Molecular Devices Corp., Sunnyvale, Calif.) with excitation at 480 nm and emission at 535 nm. After continuously reading fluorescence for 30 sec, 50 μL of basic assay buffer containing 210 mM KCl (NaCl omitted) were added for depolarization. Peak fluorescent signal intensity was determined and the amplitude of the peak signal, normalized to base line, was used to measure channel inhibition by test compounds.
On to `Cc1c(-c2ccn(C)n2)c(C(=O)N(C)C(C)C)n(Cc2ccccc2)c1C(F)(F)F` [Example 51, 1-Benzyl-N-isopropyl-N,4-dimethyl-3-(1-methyl-1H-pyrazol-3-yl)-5-(trifluoromethyl)-1H-pyrrole-2-carboxylic acid amide], for which the inhibition at 3 µM was 75 to 95%. `Cc1c(-c2ncc(Cl)cn2)c(C(=O)NC(C)C)n(Cc2ccccc2)c1C(F)(F)F` [Example 52, 1-Benzyl-3-(5-chloro-pyrimidin-2-yl)-N-isopropyl-4-methyl-5-(trifluoromethyl)-1H-pyrrole-2-carboxylic acid amide]: the inhibition at 3 µM is 40 to 75%. `Cc1c(-c2ccc(Cl)cn2)c(C(=O)NC(C)C)n(Cc2ccccc2)c1C(F)(F)F` [Example 53, 1-Benzyl-3-(5-chloro-pyridin-2-yl)-N-isopropyl-4-methyl-5-(trifluoromethyl)-1H-pyrrole-2-carboxylic acid amide]: the inhibition at 3 µM was 75 to 95%. For `Cc1c(-c2ncc(Cl)cn2)c(C(=O)N(C)C(C)C)n(Cc2ccccc2)c1C(F)(F)F` [Example 54, 1-Benzyl-3-(5-chloro-pyrimidin-2-yl)-N-isopropyl-N,4-dimethyl-5-(trifluoromethyl)-1H-pyrrole-2-carboxylic acid amide], the inhibition at 3 µM was more than 95%. For the compound `Cc1c(-c2ncc(C3CC3)cn2)c(C(=O)N(C)C(C)C)n(Cc2ccccc2)c1C(F)(F)F` [Example 56, 1-Benzyl-3-(5-cyclopropyl-pyrimidin-2-yl)-N-isopropyl-N,4-dimethyl-5-(trifluoromethyl)-1H-pyrrole-2-carboxylic acid amide], the inhibition at 3 µM was more than 95%.

As to `Cc1c(-c2ncc(Cl)cn2)c(C(=O)N(C)CC(C)(C)C(=O)N(C)C)n(Cc2ccccc2)c1C(F)(F)F` [Example 58, 1-Benzyl-3-(5-chloro-pyrimidin-2-yl)-N-[2-(dimethyl-carbamoyl)-2-methyl-propyl]-N,4-dimethyl-5-(trifluoromethyl)-1H-pyrrole-2-carboxylic acid amide], the inhibition at 3 µM is more than 95%. Regarding `Cc1c(-c2ncc(Cl)cc2[S+](C)[O-])c(C(=O)N(C)C(C)C)n(Cc2ccccc2)c1C(F)(F)F` (stereo not shown) [Example 61, 1-Benzyl-3-[5-chloro-3-(methylsulfinyl)-pyridin-2-yl]-N-isopropyl-N,4-dimethyl-5-(trifluoromethyl)-1H-pyrrole-2-carboxylic acid amide], the inhibition at 3 µM fell in the range of 75 to 95%.

These data come from patent publication US9562036B2, “Fluoromethyl-substituted pyrrole carboxamides as CaV2.2 calcium channel blockers” (GRÜNENTHAL GMBH, priority 2013, dated 2017).
